SMILES strings stand for the structures. pIC50: −log10 of the molar value.

The test concerns the target GSK3b (Homo sapiens, UniProt P49841). In words: commercial GSK3 kinase assay (Promega) with ADP-Glo luminescence readout, dose-response. The format is biochemical. For orientation: ADP-Glo first removes unused ATP, then detects ADP through luciferase.

Sequence of GSK3b (P49841 whole entry): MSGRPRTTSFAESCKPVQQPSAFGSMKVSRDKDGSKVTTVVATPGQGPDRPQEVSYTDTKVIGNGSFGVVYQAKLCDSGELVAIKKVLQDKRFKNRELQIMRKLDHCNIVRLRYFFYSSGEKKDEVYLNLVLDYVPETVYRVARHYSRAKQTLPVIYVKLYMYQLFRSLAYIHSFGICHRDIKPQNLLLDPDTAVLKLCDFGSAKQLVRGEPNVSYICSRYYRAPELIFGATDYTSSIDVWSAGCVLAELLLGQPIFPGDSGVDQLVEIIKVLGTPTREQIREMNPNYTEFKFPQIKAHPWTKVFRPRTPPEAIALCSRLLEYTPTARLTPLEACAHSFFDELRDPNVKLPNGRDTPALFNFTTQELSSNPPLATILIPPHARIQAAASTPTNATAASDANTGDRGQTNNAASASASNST

As a reminder, the pIC50 is −log10 of the IC50, conventionally taken in molar units. Lower therefore signals a high IC50. Compound `Cc1cc(Nc2nn(-c3ccccc3)c(=O)c3ccccc23)n[nH]1` [PHT, 4-[(5-methyl-1H-pyrazol-3-yl)amino]-2H-phenyl-1-phthalazinone] had a pIC50 of 7.54.
